Assay results: patent US12358885B2, “Substituted n-propylamine fused heterocyclic mescaline derivatives” (Enveric Biosciences Canada Inc., priority 2022, dated 2025)
pEC50, pKi: −log10 of the molar value.

How the values were obtained:
5-HT1A receptor [1] = target: T1, 5-HT1A receptor (Homo sapiens, UniProt P08908); assay: Eurofins Cerep competition binding assay at 5-HT1A receptor; conditions: 10 μM test ligand; [3H]8-OH-DPAT; recombinant receptor in HEK-293 cells; read-out: HT1A, percent of control-specific binding
T1 construct: purchased Perkin Elmer 6110501400UA
T1 sequence (P08908 1-422): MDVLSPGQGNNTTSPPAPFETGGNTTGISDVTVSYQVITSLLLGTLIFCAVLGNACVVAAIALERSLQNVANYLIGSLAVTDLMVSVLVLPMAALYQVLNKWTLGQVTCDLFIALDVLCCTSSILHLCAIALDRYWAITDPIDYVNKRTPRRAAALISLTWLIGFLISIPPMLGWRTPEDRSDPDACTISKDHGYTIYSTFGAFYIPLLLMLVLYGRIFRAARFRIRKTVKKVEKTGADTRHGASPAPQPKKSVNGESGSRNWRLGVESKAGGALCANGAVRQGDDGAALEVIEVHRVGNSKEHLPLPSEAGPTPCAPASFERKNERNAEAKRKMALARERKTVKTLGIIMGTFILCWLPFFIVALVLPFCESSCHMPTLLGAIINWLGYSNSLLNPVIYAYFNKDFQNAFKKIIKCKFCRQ

[2] = target: T2, norepinephrine transporter (NET) (Homo sapiens, UniProt P23975); assay: Eurofins Cerep competition binding assay at norepinephrine transporter; conditions: read-out: NET, percent of control-specific binding
T2 construct: host or cells: CHO cells (membrane preparation)

5-HT7 receptor = target: T3, 5-HT7 receptor (Homo sapiens, UniProt P34969); assay: Eurofins Cerep competition binding assay at 5-HT7 receptor; conditions: 10 μM test ligand; [3H]LSD; recombinant receptor in HEK-293 cells; read-out: HT7, percent of control-specific binding
T3 construct: host or cells: HEK-293 cells (membrane preparation)

5-HT2A receptor = target: T4, 5-HT2A receptor (Homo sapiens, UniProt P28223); assay: biochemical; type: binding; conditions: 10 μM test molecule; [125I](±)DOI; recombinant receptor in HEK-293 cells; read-out: HT2A, percent of control-specific binding
T4 construct: host or cells: HEK-293 cells (membrane preparation)

5-HT2C receptor = target: T5, 5-HT2C receptor (Homo sapiens, UniProt P28335); assay: Eurofins Cerep competition binding assay at 5-HT2C receptor; conditions: 10 μM test ligand; [125I](±)DOI; recombinant receptor in HEK-293 cells; read-out: HT2C, percent of control-specific binding
T5 construct: host or cells: HEK-293 cells (membrane preparation)
T5 sequence (P28335 33-458): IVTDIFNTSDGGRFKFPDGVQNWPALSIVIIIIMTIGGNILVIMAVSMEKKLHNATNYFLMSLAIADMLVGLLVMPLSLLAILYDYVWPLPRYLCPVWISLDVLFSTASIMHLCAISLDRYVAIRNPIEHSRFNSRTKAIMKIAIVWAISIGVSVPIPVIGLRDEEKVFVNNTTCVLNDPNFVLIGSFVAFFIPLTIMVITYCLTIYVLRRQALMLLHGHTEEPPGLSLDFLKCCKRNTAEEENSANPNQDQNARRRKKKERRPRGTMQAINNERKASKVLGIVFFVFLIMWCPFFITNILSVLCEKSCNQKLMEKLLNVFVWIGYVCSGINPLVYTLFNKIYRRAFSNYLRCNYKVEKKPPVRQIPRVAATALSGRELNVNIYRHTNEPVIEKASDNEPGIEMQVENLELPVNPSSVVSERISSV

5-HT2B receptor = target: T6, 5-HT2B receptor (Homo sapiens, UniProt P41595); assay: Eurofins Cerep competition binding assay at 5-HT2B receptor; conditions: 10 μM test ligand; [3H]mesulergine; recombinant receptor in CHO cells; read-out: HT2B, percent of control-specific binding
T6 construct: host or cells: CHO cells (membrane preparation)

D3 receptor = target: T7, D3 receptor (Homo sapiens, UniProt P35462); assay: Eurofins Cerep competition binding assay at D3 receptor; conditions: 10 μM test ligand; [3H]methylspiperone; recombinant receptor in CHO cells; read-out: D3, percent of control-specific binding
T7 construct: host or cells: CHO cells (membrane preparation)

alpha2A receptor = target: T8, alpha2A receptor (Homo sapiens, UniProt P08913); assay: Eurofins Cerep competition binding assay at alpha2A receptor; conditions: 10 μM test ligand; [3H]RX 821002; recombinant receptor in CHO cells
T8 construct: host or cells: CHO cells (membrane preparation)
T8 sequence (P08913 1-465): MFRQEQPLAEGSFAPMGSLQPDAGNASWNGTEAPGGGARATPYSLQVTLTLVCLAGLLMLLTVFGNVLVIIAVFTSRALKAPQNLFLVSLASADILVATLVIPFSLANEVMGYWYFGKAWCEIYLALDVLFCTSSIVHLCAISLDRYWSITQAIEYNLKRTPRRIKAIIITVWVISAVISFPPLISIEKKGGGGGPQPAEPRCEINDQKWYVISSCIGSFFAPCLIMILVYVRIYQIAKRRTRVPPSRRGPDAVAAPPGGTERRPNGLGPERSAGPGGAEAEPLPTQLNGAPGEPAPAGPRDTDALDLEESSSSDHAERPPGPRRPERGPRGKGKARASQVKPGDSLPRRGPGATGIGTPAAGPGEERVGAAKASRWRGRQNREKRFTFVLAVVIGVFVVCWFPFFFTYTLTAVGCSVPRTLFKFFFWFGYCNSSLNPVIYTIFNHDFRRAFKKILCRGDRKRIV

[3] = target: T9, dopamine transporter (DAT) (Homo sapiens, UniProt Q01959); assay: Eurofins Cerep competition binding assay at dopamine transporter; conditions: read-out: DAT, percent of control-specific binding
T9 construct: host or cells: CHO cells (membrane preparation)

MT1 receptor = target: T10, MT1 receptor (Homo sapiens, UniProt P48039); assay: Eurofins Cerep competition binding assay at MT1 receptor; conditions: read-out: MT1, percent of control-specific binding
T10 construct: host or cells: CHO cells (membrane preparation)

[4] = target: T11, serotonin transporter (SERT) (Homo sapiens, UniProt P31645); assay: biochemical; type: binding; conditions: read-out: SERT, percent of control-specific binding
T11 construct: host or cells: CHO cells (membrane preparation)

5-HT1A receptor [5] = target: T1, 5-HT1A receptor; assay: 5-HT1A receptor radioligand competition assay (SPA, 8-hydroxy-DPAT [3H]); type: binding; conditions: 0.5 nM hot 8-hydroxy-DPAT, membranes containing 5-HT1A
5-HT1A receptor [6] = target: T1, 5-HT1A receptor; assay: Functional 5-HT1A receptor cAMP assay in CHO-K1/5-HT1A/Gα15 cells; type: cell-based

T4 sequence (P28223 whole entry): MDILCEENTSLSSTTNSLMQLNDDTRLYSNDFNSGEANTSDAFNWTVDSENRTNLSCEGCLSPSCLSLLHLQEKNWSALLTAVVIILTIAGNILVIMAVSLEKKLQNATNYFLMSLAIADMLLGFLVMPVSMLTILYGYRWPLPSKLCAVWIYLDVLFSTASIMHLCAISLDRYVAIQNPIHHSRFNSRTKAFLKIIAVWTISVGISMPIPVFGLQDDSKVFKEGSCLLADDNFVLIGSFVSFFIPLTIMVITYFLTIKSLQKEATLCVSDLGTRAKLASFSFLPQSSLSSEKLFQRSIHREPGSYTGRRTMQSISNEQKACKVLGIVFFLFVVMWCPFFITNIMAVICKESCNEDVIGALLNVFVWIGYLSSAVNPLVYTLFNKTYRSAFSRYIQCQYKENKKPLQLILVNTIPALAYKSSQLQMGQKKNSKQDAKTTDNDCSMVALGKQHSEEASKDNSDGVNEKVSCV
T7 sequence (P35462 whole entry): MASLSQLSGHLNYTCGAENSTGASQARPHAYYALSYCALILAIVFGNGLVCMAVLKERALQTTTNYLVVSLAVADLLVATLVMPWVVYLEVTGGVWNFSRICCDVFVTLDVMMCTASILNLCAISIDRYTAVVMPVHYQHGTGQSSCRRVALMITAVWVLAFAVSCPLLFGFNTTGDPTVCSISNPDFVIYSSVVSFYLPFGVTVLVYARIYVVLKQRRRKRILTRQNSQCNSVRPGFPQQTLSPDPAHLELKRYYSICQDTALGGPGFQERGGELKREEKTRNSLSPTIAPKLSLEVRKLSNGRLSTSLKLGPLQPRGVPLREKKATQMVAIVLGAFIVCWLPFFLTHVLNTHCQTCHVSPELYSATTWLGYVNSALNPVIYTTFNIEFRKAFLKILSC
T6 sequence (P41595 whole entry): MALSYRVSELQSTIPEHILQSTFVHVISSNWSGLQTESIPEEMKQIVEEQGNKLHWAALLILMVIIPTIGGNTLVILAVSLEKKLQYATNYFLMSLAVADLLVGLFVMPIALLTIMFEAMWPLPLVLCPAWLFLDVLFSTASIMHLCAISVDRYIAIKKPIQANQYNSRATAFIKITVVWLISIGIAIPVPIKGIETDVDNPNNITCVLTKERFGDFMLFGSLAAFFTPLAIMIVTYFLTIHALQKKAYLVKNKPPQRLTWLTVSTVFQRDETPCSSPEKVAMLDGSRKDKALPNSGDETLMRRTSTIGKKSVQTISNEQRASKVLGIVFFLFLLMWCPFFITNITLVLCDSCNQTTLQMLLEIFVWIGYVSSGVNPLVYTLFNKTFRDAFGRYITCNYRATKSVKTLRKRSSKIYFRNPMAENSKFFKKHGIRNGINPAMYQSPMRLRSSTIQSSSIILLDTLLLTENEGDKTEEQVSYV
T3 sequence (P34969 whole entry): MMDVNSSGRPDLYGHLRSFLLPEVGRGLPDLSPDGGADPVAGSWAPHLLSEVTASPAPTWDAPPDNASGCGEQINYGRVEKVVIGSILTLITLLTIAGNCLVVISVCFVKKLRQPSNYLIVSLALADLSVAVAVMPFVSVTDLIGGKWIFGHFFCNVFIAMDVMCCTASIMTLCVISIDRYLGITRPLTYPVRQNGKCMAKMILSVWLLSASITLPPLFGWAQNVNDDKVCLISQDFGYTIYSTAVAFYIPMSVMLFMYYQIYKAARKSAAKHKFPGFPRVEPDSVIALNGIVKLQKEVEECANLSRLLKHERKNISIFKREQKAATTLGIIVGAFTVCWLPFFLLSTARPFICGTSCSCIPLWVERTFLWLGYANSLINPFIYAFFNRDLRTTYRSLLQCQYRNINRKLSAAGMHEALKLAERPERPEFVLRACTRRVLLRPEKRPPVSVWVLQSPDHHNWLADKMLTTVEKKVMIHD
T9 sequence (Q01959 whole entry): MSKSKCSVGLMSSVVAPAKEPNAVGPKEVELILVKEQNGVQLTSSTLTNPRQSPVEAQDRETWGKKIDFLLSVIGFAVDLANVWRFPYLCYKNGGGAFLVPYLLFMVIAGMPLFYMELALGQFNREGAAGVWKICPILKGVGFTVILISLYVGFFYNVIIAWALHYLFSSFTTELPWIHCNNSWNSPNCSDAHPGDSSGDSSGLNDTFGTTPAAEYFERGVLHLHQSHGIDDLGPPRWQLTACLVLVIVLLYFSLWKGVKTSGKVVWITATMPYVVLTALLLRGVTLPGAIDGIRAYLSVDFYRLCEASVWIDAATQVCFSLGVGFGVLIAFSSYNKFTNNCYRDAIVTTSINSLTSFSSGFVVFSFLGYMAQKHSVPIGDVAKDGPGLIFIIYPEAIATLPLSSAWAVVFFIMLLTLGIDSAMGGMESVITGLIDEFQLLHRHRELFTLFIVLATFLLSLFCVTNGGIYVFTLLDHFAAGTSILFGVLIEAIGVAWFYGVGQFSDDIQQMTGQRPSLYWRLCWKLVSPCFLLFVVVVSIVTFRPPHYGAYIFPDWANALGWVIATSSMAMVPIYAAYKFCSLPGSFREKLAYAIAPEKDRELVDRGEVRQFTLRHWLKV
T10 sequence (P48039 whole entry): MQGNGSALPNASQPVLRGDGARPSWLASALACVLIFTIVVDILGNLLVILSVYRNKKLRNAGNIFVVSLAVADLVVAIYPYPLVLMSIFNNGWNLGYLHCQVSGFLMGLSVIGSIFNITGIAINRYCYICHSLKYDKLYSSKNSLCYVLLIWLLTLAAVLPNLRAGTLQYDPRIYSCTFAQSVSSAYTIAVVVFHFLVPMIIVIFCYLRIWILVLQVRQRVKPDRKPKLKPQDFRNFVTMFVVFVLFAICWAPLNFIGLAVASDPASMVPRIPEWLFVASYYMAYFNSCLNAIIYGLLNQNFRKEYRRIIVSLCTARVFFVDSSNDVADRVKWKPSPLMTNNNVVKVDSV
T2 sequence (P23975 whole entry): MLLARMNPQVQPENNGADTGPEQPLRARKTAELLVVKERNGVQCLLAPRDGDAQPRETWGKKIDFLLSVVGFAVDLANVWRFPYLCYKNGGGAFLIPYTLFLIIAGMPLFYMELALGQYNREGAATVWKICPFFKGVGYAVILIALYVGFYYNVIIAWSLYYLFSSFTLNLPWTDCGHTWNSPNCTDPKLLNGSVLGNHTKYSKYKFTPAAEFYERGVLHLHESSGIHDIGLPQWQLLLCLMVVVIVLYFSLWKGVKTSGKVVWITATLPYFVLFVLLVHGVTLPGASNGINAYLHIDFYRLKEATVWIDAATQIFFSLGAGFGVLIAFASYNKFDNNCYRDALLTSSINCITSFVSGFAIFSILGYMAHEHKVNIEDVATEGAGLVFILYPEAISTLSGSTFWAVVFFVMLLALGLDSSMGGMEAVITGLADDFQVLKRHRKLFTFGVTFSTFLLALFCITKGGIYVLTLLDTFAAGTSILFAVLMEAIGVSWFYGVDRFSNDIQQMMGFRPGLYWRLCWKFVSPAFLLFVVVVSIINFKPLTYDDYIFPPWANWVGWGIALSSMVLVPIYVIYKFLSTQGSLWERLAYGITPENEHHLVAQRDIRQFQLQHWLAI
T11 sequence (P31645 whole entry): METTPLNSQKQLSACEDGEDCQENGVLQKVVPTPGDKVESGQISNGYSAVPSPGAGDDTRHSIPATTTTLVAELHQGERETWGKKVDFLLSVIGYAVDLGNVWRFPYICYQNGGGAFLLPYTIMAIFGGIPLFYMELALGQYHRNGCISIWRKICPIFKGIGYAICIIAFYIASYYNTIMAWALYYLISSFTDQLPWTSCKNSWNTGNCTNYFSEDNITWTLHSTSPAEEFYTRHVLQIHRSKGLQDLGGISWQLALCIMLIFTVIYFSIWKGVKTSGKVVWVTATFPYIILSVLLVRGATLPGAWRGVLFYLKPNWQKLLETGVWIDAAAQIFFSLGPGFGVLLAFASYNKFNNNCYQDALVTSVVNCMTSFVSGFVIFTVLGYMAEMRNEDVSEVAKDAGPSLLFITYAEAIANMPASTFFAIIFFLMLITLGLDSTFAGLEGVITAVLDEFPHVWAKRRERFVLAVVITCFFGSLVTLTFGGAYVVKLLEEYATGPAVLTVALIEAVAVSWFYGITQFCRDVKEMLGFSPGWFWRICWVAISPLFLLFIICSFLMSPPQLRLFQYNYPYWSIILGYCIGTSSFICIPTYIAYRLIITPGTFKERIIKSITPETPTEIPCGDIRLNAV

SMILES	inhibition at 10 µM (5-HT2A receptor)	inhibition at 10 µM (D3 receptor)	α-2A, percent of control-specific binding (alpha2A receptor)	also measured
O=C(CCc1cc2c(cc1Br)OCO2)N1CCCC1 [F(IV)]	0%	12%	4%	inhibition at 10 µM (5-HT1A receptor [1]): 37%; inhibition at 10 µM [2]: 0%; inhibition at 10 µM (5-HT7 receptor): 0%; inhibition at 10 µM (5-HT2C receptor): 8%; inhibition at 10 µM (5-HT2B receptor): 26%; inhibition at 10 µM [3]: 0%; inhibition at 10 µM (MT1 receptor): 42%; inhibition at 10 µM [4]: 0%; pKi (5-HT1A receptor [5]): 4.07
COc1cc2c(cc1CCC(=O)N1CCCC1)OCO2 [F(V)]				pEC50 (5-HT1A receptor [6]): 5.00; pKi (5-HT1A receptor [5]): 3.44
Brc1cc2c(cc1CCC1=NCCO1)OCO2 [G(V)]				pEC50 (5-HT1A receptor [6]): 3.89
CN(C)CCCN1c2ccccc2CCc2ccccc21 [Imipramine]	97%	92%	57%	
COc1ccc2[nH]cc(CCNC(C)=O)c2c1 [Melatonin]		2%	−7%	
O=c1n(CCCN2CCN(c3cccc(Cl)c3)CC2)nc2ccccn12 [Trazodone]		89%	91%	
N#Cc1ccc2[nH]cc(CCCCN3CCN(c4ccc5oc(C(N)=O)cc5c4)CC3)c2c1 [Vilazodone]	94%	99%	65%	
COc1cc(CCN)cc(OC)c1OC [mescaline, 3,4,5 trimethoxyphenethylamine]	79%	-13%	57%	
CCCOc1c(OC)cc(CCN)cc1OC [proscaline]	91%	4%	40%	
NCCc1c[nH]c2ccc(O)cc12 [serotonin]		73%	18%	
N[C@@H](Cc1c[nH]c2ccccc12)C(=O)O [tryptophan]	-1%	-23%	−4%	
Cc1ccc(Sc2ccccc2N2CCNCC2)c(C)c1 [vortioxetine]	90%	88%	62%	
